In BindingDB's records for doi:10.1016/j.bmcl.2006.10.074 (Abbott Laboratories, 2007):

How the values were obtained:
[1] = molecular target: 11-beta-hydroxysteroid dehydrogenase 1 (Mus musculus, UniProt P50172); assay: Human and Mouse 11beta-HSD1 SPA Assay
Protocol: (§1) Enzyme assays were performed using purified recombinant human or mouse11beta-HSD1. The fractional conversion of cortisone to cortisol was used to determine enzyme activities. The radioactive cortisol generated in the assay was captured by a monoclonal anti-cortisol antibody and SPA beads coated with anti-mouse antibodies.

[2] = molecular target: 11-beta-hydroxysteroid dehydrogenase 1 (Homo sapiens, UniProt P28845); assay: Human and Mouse 11beta-HSD1 SPA Assay; conditions: pH 7.2; 22 °C
Protocol: as §1

11-beta-hydroxysteroid dehydrogenase 1 (Mus musculus, UniProt P50172), sequence (P50172 whole entry): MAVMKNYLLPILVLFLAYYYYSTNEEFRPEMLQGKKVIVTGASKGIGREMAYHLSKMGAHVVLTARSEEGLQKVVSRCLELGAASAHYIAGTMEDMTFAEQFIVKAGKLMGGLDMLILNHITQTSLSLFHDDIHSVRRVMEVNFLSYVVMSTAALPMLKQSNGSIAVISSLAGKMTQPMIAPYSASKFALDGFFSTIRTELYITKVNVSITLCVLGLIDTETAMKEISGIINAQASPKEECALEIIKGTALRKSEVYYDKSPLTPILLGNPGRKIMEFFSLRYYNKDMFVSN
11-beta-hydroxysteroid dehydrogenase 1 (Homo sapiens, UniProt P28845), sequence (P28845 whole entry): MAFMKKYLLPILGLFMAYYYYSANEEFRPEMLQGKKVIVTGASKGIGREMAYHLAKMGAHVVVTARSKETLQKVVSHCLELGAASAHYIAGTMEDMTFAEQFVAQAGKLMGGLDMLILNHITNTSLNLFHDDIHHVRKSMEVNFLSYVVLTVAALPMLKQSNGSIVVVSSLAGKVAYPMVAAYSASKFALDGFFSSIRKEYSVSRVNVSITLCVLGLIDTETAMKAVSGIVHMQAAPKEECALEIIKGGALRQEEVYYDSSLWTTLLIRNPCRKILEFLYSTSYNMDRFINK

CC(C)(Oc1ccc(F)cc1Cl)C(=O)N[C@H]1C2C[C@@H]3C[C@@H]1C[C@@](c1nnn[nH]1)(C2)C3 [2-(2-chloro-4-fluorophenoxy)-2-methyl-N-[(1R,2S,5R,7S)-5-(1H-1,2,3,4-tetrazol-5-yl)adamantan-2-yl]propanamide]
IC50 [1]: 10 nM

CNC(=O)NC(=O)[C@@]12CC3C[C@H](C[C@H](C1)[C@H]3NC(=O)C(C)(C)Oc1ccc(Cl)cc1)C2 [2-(4-chlorophenoxy)-2-methyl-N-[(1R,2S,5R,7S)-5-{[(methylcarbamoyl)amino]carbonyl}adamantan-2-yl]propanamide]
IC50 [1]: 8 nM

CC(C)(Oc1ccc(Cl)cc1)C(=O)N[C@H]1C2C[C@@H]3C[C@@H]1C[C@@](CO)(C2)C3 [2-(4-chlorophenoxy)-N-[(1R,2S,5R,7S)-5-(hydroxymethyl)adamantan-2-yl]-2-methylpropanamide]
IC50 [1]: 6 nM

CC(C)(Oc1ccc(Cl)cc1)C(=O)N[C@H]1C2C[C@@H]3C[C@@H]1C[C@@](COCC(=O)O)(C2)C3 [2-{[(1R,3R,4S,7S)-4-[2-(4-chlorophenoxy)-2-methylpropanamido]adamantan-1-yl]methoxy}acetic acid]
IC50 [1]: 210 nM
IC50 [2]: 110 nM

CC(C)(Oc1ccc(Cl)cc1)C(=O)N[C@H]1C2C[C@@H]3C[C@@H]1C[C@@](C(=O)NCc1ccc(C(=O)O)cc1)(C2)C3 [4-({[(1R,3R,4S,7S)-4-[2-(4-chlorophenoxy)-2-methylpropanamido]adamantan-1-yl]formamido}methyl)benzoic acid]
IC50 [1]: 12 nM

CC(C)(Oc1ccccc1)C(=O)N[C@H]1C2C[C@@H]3C[C@@H]1C[C@@](C(N)=O)(C2)C3 [(1R,3R,4S,7S)-4-(2-methyl-2-phenoxypropanamido)adamantane-1-carboxamide]
IC50 [1]: 4 nM

CC(C)(Oc1ccccc1)C(=O)N[C@H]1C2C[C@@H]3C[C@@H]1C[C@@](C(=O)O)(C2)C3 [(1R,3R,4S,7S)-4-(2-methyl-2-phenoxypropanamido)adamantane-1-carboxylic acid]
IC50 [1]: 119 nM

CC(C)(Oc1ccccc1Cl)C(=O)N[C@H]1C2C[C@@H]3C[C@@H]1C[C@@](C(=O)NS(C)(=O)=O)(C2)C3 [(1R,3R,4S,7S)-4-[2-(2-chlorophenoxy)-2-methylpropanamido]-N-methanesulfonyladamantane-1-carboxamide]
IC50 [1]: 28 nM
IC50 [2]: 96 nM

CC(C)(Oc1ccccc1Cl)C(=O)N[C@H]1C2C[C@@H]3C[C@@H]1C[C@@](C(=O)O)(C2)C3 [(1R,3R,4S,7S)-4-[2-(2-chlorophenoxy)-2-methylpropanamido]adamantane-1-carboxylic acid]
IC50 [1]: 8 nM
IC50 [2]: 8 nM

CC(C)(Oc1cccc(Cl)c1)C(=O)N[C@H]1C2C[C@@H]3C[C@@H]1C[C@@](C(=O)O)(C2)C3 [(1R,3R,4S,7S)-4-[2-(3-chlorophenoxy)-2-methylpropanamido]adamantane-1-carboxylic acid]
IC50 [1]: 51 nM
IC50 [2]: 15 nM

CC(C)(Oc1ccc(Cl)cc1)C(=O)N[C@H]1C2C[C@@H]3C[C@@H]1C[C@@](C(=O)NCc1cncs1)(C2)C3 [(1R,3R,4S,7S)-4-[2-(4-chlorophenoxy)-2-methylpropanamido]-N-(1,3-thiazol-5-ylmethyl)adamantane-1-carboxamide]
IC50 [1]: 11 nM

CC(C)(Oc1ccc(Cl)cc1)C(=O)N[C@H]1C2C[C@@H]3C[C@@H]1C[C@@](C(=O)NCc1ccncc1)(C2)C3 [(1R,3R,4S,7S)-4-[2-(4-chlorophenoxy)-2-methylpropanamido]-N-(pyridin-4-ylmethyl)adamantane-1-carboxamide]
IC50 [1]: 14 nM
IC50 [2]: 25 nM

CC(C)(Oc1ccc(Cl)cc1)C(=O)N[C@H]1C2C[C@@H]3C[C@@H]1C[C@@](C(=O)NCc1ccc(S(N)(=O)=O)cc1)(C2)C3 [(1R,3R,4S,7S)-4-[2-(4-chlorophenoxy)-2-methylpropanamido]-N-[(4-sulfamoylphenyl)methyl]adamantane-1-carboxamide]
IC50 [1]: 24 nM
IC50 [2]: 51 nM

CC(C)(Oc1ccc(Cl)cc1)C(=O)N[C@H]1C2C[C@@H]3C[C@@H]1C[C@@](C(=O)NCc1ccc(-c4nnn[nH]4)cc1)(C2)C3 [(1R,3R,4S,7S)-4-[2-(4-chlorophenoxy)-2-methylpropanamido]-N-{[4-(1H-1,2,3,4-tetrazol-5-yl)phenyl]methyl}adamantane-1-carboxamide]
IC50 [1]: 18 nM

CC(C)(Oc1ccc(Cl)cc1)C(=O)N[C@H]1C2C[C@@H]3C[C@@H]1C[C@@](C(N)=O)(C2)C3 [(1R,3R,4S,7S)-4-[2-(4-chlorophenoxy)-2-methylpropanamido]adamantane-1-carboxamide]
IC50 [1]: 3 nM

CC(C)(Oc1ccc(Cl)cc1)C(=O)N[C@H]1C2C[C@@H]3C[C@@H]1C[C@@](C(=O)O)(C2)C3 [(1R,3R,4S,7S)-4-[2-(4-chlorophenoxy)-2-methylpropanamido]adamantane-1-carboxylic acid]
IC50 [1]: 70 nM

COc1ccc(OC(C)(C)C(=O)N[C@H]2C3C[C@@H]4C[C@@H]2C[C@@](C(N)=O)(C3)C4)cc1 [(1R,3R,4S,7S)-4-[2-(4-methoxyphenoxy)-2-methylpropanamido]adamantane-1-carboxamide]
IC50 [1]: 4 nM

CC(C)(Oc1ccccc1Cl)C(=O)N[C@H]1C2C[C@@H]3C[C@@H]1C[C@@](C(=O)NS(=O)(=O)c1ccccc1)(C2)C3 [(1R,3R,4S,7S)-N-(benzenesulfonyl)-4-[2-(2-chlorophenoxy)-2-methylpropanamido]adamantane-1-carboxamide]
IC50 [1]: 1000 nM
IC50 [2]: 500 nM

CC(C)(Oc1ccc(Cl)cc1)C(=O)N[C@H]1C2C[C@@H]3C[C@@H]1C[C@@](C(=O)NCC(N)=O)(C2)C3 [N-[(1R,2S,5R,7S)-5-[(carbamoylmethyl)carbamoyl]adamantan-2-yl]-2-(4-chlorophenoxy)-2-methylpropanamide]
IC50 [1]: 4 nM
